Consider 14 compounds from article PMC6271274, “Synthesis, Leishmanicidal Activity and Theoretical Evaluations of a Series of Substituted bis-2-Hydroxy-1,4-Naphthoquinones” (Molecules, 2014).

The subject of series [1] is L. braziliensis promastigotes. Description: In vitro activity against L. braziliensis promastigotes. It is filed as cell-based, Leishmania braziliensis. The settings on record: for IC50 / Emax: Leishmania braziliensis, L. braziliensis promastigotes, 48 h; for IC50: maximal concentration 100 μM; for Emax: NT = no significant inhibitory activity for the parasite to 100 M (printed) compared to DMSO group, read-out: Maximum Effect; for Selectivity: IC50 to L. braziliensis lower than IC50 to L. amazonensis: ratio of promastigote IC50 values. How it is done:
(§1) L. braziliensis promastigotes (MHOM/BR/87/BA788) were obtained from Dra. Valéria de Matos Borges at the Gonçalo Moniz Research Center, Fiocruz_BA. L. amazonensis promastigotes (MHOM/BR/77/LTB0016) were obtained from Dr. Eduardo Caio Torres dos Santos at the Oswaldo Cruz Institute-Fiocruz_RJ. The parasites were maintained in vitro in Schneider’s medium supplemented with 10% FBS and 2% human urine at 27 °C in BOD incubator.
(§2) The parasites were maintained in vitro in Schneider’s medium supplemented with 10% FBS and 2% human urine. Novel bis-lawsone analog stock solutions and pentamidine (reference leishmanicidal drug) were prepared in DMSO immediately before use. The cytotoxicities of the bis-lawsone analogs and pentamidine against the promastigotes were determined. Stationary phase L. braziliensis and L. amazonensis promastigotes were plated in 96-well vessels (Nunc, Roskilde, Denmark) at 1 × 10^5 cells per well in Schneider’s medium supplemented with 10% FBS and 2% human urine. Each compound solution was added at increasing concentrations (0.1–100 mg to the extract and its phases or 0.1–100 µΜ to the isolates and pentamidine). The cells were also cultured in a medium free of compounds, a vehicle (basal growth control) or with DMSO 0.1% (vehicle control). After 48 h, the extracellular load for L. braziliensis and L. amazonensis promastigotes was estimated by counting the promastigotes in Schneider’s medium using a CELM automatic cell counter (model CC530, Barueri, Brazil). The data obtained from experiments were expressed as the mean ± S.E.M., and the significant differences between the treated and vehicle groups were evaluated using ANOVA and Dunnett post-hoc tests.

Series [2] can be described thus: Cytotoxicity against host cells (MTT assay). It is filed as cell-based. The conditions noted are these: mouse, J774 macrophage cell line; J774 macrophages, MTT assay, 48 h, maximal concentration 100 μM; read-out: LC50. Here is the method:
(§3) The adherent-phenotype macrophage line was cultured in Dulbecco’s Modified Eagle’s medium (DMEM, Sigma, Dublin, Ireland) supplemented with 10% FBS at 37 °C, 95% humidity and 5% CO2.
(§4) To evaluate the cytotoxicity activity against the J774 cell line, the host cells were plated in 96-well vessels at 2 × 10^5 cells per well in a complete culture medium with 10% FBS at 37 °C. After 1 h, the wells were washed with HBSS to remove non-adherent cells, leaving approximately 1 × 10^5 adherent macrophages. The cells were cultured in DMEM complete medium supplemented with 10% FBS. The compounds and pentamidine were added at serial concentrations (0.1–100 µM). The cells were also cultured in media free from compounds, a vehicle (basal growth control) or media with DMSO 0.1% (vehicle control). The positive control (dead cells) was obtained through cellular lyses with 1% of Triton X-100 in DMEM complete medium. After 48 h, the cytotoxicity was evaluated using the MTT assay. The data obtained from the experiments were expressed as the mean ± S.E.M., and the significant differences between the treated and vehicle groups were evaluated using ANOVA and Dunnett post-hoc tests.
(In general: Formazan colour is commonly taken as a measure of viable cells.)

The subject of series [3] is L. amazonensis promastigotes. The experiment in a line: In vitro activity against L. amazonensis promastigotes. Type of series: cell-based. The settings on record: Leishmania amazonensis, 48 h; for IC50: maximal concentration 100 μM; for Emax: up to 100 μM, read-out: Maximum Effect. How it is done:
as §1, §2

Series [4] has as its system Leishmania. Details: method as in PMID 15654435. The settings on record: cited from earlier work.
Series [5] deals with promastigote forms. The conditions noted are these: stated as reason for choice of reference drug; no reference given; cited from earlier work.
Series [6] concerns L. amazonensis. The experiment in a line: In vivo activity against Leishmania amazonensis in infected BALB/c mice. The conditions noted are these: 30 μmol/kg/day × 28 days, i.p.; for Parasite load in the draining lymph node / Parasite load in the infected ear: limiting-dilution assay. The text has this:
(§5) This study was approved (protocol no. 2013.02) by the Ethics Committee for Animal Experimentation of the Federal University of Alagoas (Brazil). All animals received humane care in compliance with the “Principles of laboratory animal care” formulated by the National Society for Medical Research and the “Guide for the care and use of laboratory animals” prepared by the National Academy of Sciences (Washington, DC, USA). Next, 1 × 10^5 stationary promastigotes (5 days of culture in Schneider’s medium) of L. amazonensis (MHOM/BR/77/LTB0016) were subcutaneously inoculated into the right ear dermis of 6-week-old female BALB/c mice weighing ca. 20 g. and were later intraperitoneally treated with 3a or glucantime at 30 μmol/kg × 28 days. The lesion size was measured using a paquimeter. The parasite loads of infected ears and draining lymph nodes were determined using a quantitative limiting-dilution assay. Complex toxicity was also evaluated through biochemistry dosages in plasma. The experimental data were expressed as the mean ± S.E.M., and the significant differences between the treated and vehicle groups were evaluated using ANOVA and Dunnett post-hoc tests.

The subject of series [7] is J774 cell line. The experiment in a line: Cytotoxicity against host cells (MTT assay). Type of series: cell-based. The conditions noted are these: for Effect on J774 cell line viability / cytotoxicity to the host cells (in words): 48 h of incubation, at 100 µM; for Maximum Cytotoxicity: J774 macrophages, MTT assay, 48 h, NT = no significant lethal activity to cell until 100 M (printed) compared to DMSO group. How it is done:
as §3, §4

Series [8] can be described thus: In vivo toxicity (spleen weight, plasma biochemistry) in infected BALB/c mice. The settings on record: BALB/c mice infected with L. amazonensis, 30 μmol/kg/day × 28 days, i.p.
Excerpt: as §5

Series [9] has as its system L. braziliensis. Also noted: method as in PMID 15654435. The settings on record: promastigotes; cited from earlier work.
The test system of series [10] is L. amazonensis. Details: method as in PMID 15654435. The settings on record: promastigotes; cited from earlier work.

“And” between values parts separate entries of the source, which are not always exact repeats. Equal entries are not always repeated. Where only a bound is given, the exact number is not on record here.

Usually IC50 stands for the concentration needed to halve the response being measured.

Turning to `O=C1C(O)=C(C(C2=C(O)C(=O)c3ccccc3C2=O)c2ccc([N+](=O)[O-])cc2)C(=O)c2ccccc21` [Compound 3g, 3,3'-(4-Nitrophenylmethylene)-bis[2-hydroxy-1,4-naphthalenedione]], the IC50 came out at 2.8 ± 0.1 µM in series [1] and 7.7 ± 1.2 µM in series [3]. Besides, the Emax in series [1] was 91.7 ± 1.3%; in [3], 55.6 ± 3.2%. Moreover, the CC50 at 48 h in series [2] was more than 100 µM.

In the case of `CC(C)=CCC1=C(O)C(=O)c2ccccc2C1=O` [Lapachol], the “Antileishmanial activity (in words)” value in series [4] was “significant activity”.

For “meglumine antimoniate [glucantime, reference compound]”, the “Activity against promastigote forms (in words)” value in series [5] is listed as “not active”. In addition, in [6], the “Parasite load in the draining lymph node” value is given as “did not decrease” and the “Parasite load in the infected ear” value was “did not decrease”.

For isolapachol, the “Antileishmanial activity (in words)” value in [4] is reported as “significant activity”.

Take `O=C1C(O)=C(C(C2=C(O)C(=O)c3ccccc3C2=O)c2ccc(O)cc2)C(=O)c2ccccc21` [Compound 3f, 3,3'-(4-Hydroxyphenylmethylene)-bis[2-hydroxy-1,4-naphthalenedione]]: in series [1], the IC50 is 38.7 ± 2 µM and the Emax is 91.7 ± 0.3%. In series [2], the CC50 at 48 h is more than 100 µM. For the same compound, in [3], half-maximal inhibition (IC50) was put at 68.7 ± 15.1 µM and the Emax stood at 55.4 ± 4.7%.

In the case of `O=C1C(O)=C(CC2=C(O)C(=O)c3ccccc3C2=O)C(=O)c2ccccc21` [Compound 3a, 3,3'-(Methylene)-bis[2-hydroxy-1,4-naphthalenedione]], in series [1], half-maximal inhibition (IC50) was put at 0.9 ± 0.08 µM, the Emax stood at 88.4 ± 0.9% and the “Selectivity: IC50 to L. braziliensis lower than IC50 to L. amazonensis” value came out at 10 times. Moreover, the CC50 at 48 h in [2] was more than 100 µM. Also, the “Effect on J774 cell line viability / cytotoxicity to the host cells (in words)” value in series [7] was “without cytotoxicity”. Further, in series [6], the “Parasite load in the draining lymph node” value is given as “did not decrease” and the “Parasite load in the infected ear” value is on record as “did not decrease”. In addition, the “Lesion size for the infected ear” value in series [6] (third week after the treatment began) is on record as “decreased”. Moreover, in series [8], the “Alanine aminotransferase (ALT) in plasma” value is given as “nor altered” and the “Aspartate aminotransferase (AST) in plasma” value is reported as “nor altered”. The Spleen weight result in series [8] (last day of treatment) was “neither induced a change”. For the same compound, in series [3], the IC50 was 71 ± 1.1 µM and the Emax is 72.8 ± 1%.

For `N=C(N)c1ccc(OCCCCCOc2ccc(C(=N)N)cc2)cc1` [Pentamidine, reference compound], the half-inhibitory concentration (IC50) in series [1] came to 0.8 ± 0.06 µM; in [3] it was 2.3 ± 0.8 µM. In addition, the Emax was found to be 91 ± 0.1% in [1] and 85.4 ± 0.4% in series [3]. For the same compound, in series [2], the CC50 at 48 h was determined as 73 ± 6 µM. Moreover, the “Maximum Cytotoxicity” value in series [7] is given as 78.0 ± 3.8 %; in series [7] (listed as pentamidine), 78.0% ± 3.8%.

Take `CCCCCC(C1=C(O)C(=O)c2ccccc2C1=O)C1=C(O)C(=O)c2ccccc2C1=O` [Compound 3b, 3,3'-(Hexylidene)-bis[2-hydroxy-1,4-naphthalenedione]]: in series [1], the midpoint of inhibition, the IC50, lay at 5.2 ± 0.1 µM and the Emax is 93 ± 0.1%. Moreover, in series [2], the CC50 at 48 h was more than 100 µM. In addition, the “Effect on J774 cell line viability / cytotoxicity to the host cells (in words)” value in series [7] is “without cytotoxicity”. In [3], 5.2 ± 0.1 µM corresponded to half-maximal inhibition (IC50) and the Emax was found to be 57.2 ± 3.8%.

On to `O=C1C(O)=C(C(C2=C(O)C(=O)c3ccccc3C2=O)c2ccc(F)cc2)C(=O)c2ccccc21` [Compound 3h, 3,3'-(4-Fluorophenylmethylene)-bis[2-hydroxy-1,4-naphthalenedione]], for which the half-inhibitory concentration (IC50) was found to be 0.8 ± 0.03 µM in [1] and 0.6 ± 0.2 µM in series [3]. The Emax is 88.7 ± 0.3% in [1] and 51 ± 5.5% in series [3]. The CC50 at 48 h in [2] is more than 100 µM. Also, the “Effect on J774 cell line viability / cytotoxicity to the host cells (in words)” value in series [7] was “without cytotoxicity”.

With `COc1ccc(C(C2=C(O)C(=O)c3ccccc3C2=O)C2=C(O)C(=O)c3ccccc3C2=O)cc1` [Compound 3e, 3,3'-(4-Methoxyphenylmethylene)-bis[2-hydroxy-1,4-naphthalenedione]], in [1], 0.9 ± 0.04 µM corresponded to half-maximal inhibition (IC50), the Emax is 61.6 ± 7.5% and the “Selectivity: IC50 to L. braziliensis lower than IC50 to L. amazonensis” value was 10 times. Besides, the CC50 at 48 h in [2] is more than 100 µM. Also, the “Effect on J774 cell line viability / cytotoxicity to the host cells (in words)” value in [7] is on record as “without cytotoxicity”. Further, in series [3], the 50% inhibitory concentration (IC50) is more than 100 µM and the Emax came out at 44.6 ± 2.4%.

Consider `CC(=O)OC1=C(C=CC(C)C)C(=O)c2ccccc2C1=O` [isolapachol acetate], for which the IC50 is 3.4 µg/mL in series [9] and 1.6 µg/mL in series [10].

Consider `CCC(CC)C(C1=C(O)C(=O)c2ccccc2C1=O)C1=C(O)C(=O)c2ccccc2C1=O` [Compound 3c, 3,3'-(2-Ethylbutylidene)-bis[2-hydroxy-1,4-naphthalenedione]], for which, in series [1], the midpoint of inhibition, the IC50, lay at 34.7 ± 4.3 µM and the Emax stood at 90.4 ± 0.7%. Also, the CC50 at 48 h in series [2] came out at 67.4 ± 2.1 µM. Moreover, the “Maximum Cytotoxicity” value in series [7] was 71.7% ± 3.8% and 71.7 ± 3.8 %. For the same compound, in [3], the half-inhibitory concentration (IC50) turned out to be 0.4 ± 0.1 µM and the Emax was found to be 75.3 ± 1.3%.

For `O=C1C(O)=C(C(C2=C(O)C(=O)c3ccccc3C2=O)c2ccccc2)C(=O)c2ccccc21` [Compound 3d, 3,3'-(Phenylmethylene)-bis[2-hydroxy-1,4-naphthalenedione]], the half-inhibitory concentration (IC50) in series [1] was more than 100 µM. Besides, the “Activity against promastigote forms of L. braziliensis (in words)” value in [1] (until 100 µM) is recorded as “did not present activity”. Also, the CC50 at 48 h in series [2] was more than 100 µM. In series [3], half-maximal inhibition (IC50) was put at 0.3 ± 0.1 µM and the Emax turned out to be 85 ± 3.8%.

Regarding `CC(C)CCC1=C(O)C(=O)c2ccccc2C1=O` [dihydrolapachol], the “Antileishmanial activity (in words)” value in series [4] is reported as “significant activity”.
